Measured values published in patent US9889115B2, “Fitness assay and associated methods” (priority 1998, dated 2018).
Read-outs that look alike come from different tables or passages of the source.

Legend:
Type in all cases: cell-based
wild-type HIV-1 (WT) = experiment: IC50 against wild-type HIV-1 (Table 9a); settings: (WT)
[1] = test system: multidrug-resistant HIV-1 clinical isolate, patient 20; experiment: microbe, parasite or virus in culture; settings: Patient Isolate 20
Method: (§1) The mutant multidrug-resistant HIV-1 strains corresponding to each patient, numbered 9-35, were genetically analyzed in terms of the nucleic acid sequences of the protease (PR) and a portion of the reverse transcriptase (RT) genes from which mutations in these enzymes were determined. The mutations in the protease and reverse transcriptase of the multidrug-resistant viruses isolated from each patient are shown below in Table 9b.

[2] = test system: multidrug-resistant HIV-1 clinical isolate, patient 19; experiment: microbe, parasite or virus in culture; settings: Patient Isolate 19
Method: as §1

[3] = test system: multidrug-resistant HIV-1 clinical isolate, patient 18; experiment: microbe, parasite or virus in culture; settings: Patient Isolate 18
Method: as §1

[4] = test system: multidrug-resistant HIV-1 clinical isolate, patient 13; experiment: microbe, parasite or virus in culture; settings: Patient Isolate 13
Method: as §1

[5] = test system: multidrug-resistant HIV-1 clinical isolate, patient 28; experiment: microbe, parasite or virus in culture; settings: Patient Isolate 28
Method: as §1

[6] = test system: multidrug-resistant HIV-1 clinical isolate, patient 33; experiment: microbe, parasite or virus in culture; settings: Patient Isolate 33
Method: as §1

[7] = test system: multidrug-resistant HIV-1 clinical isolate, patient 29; experiment: microbe, parasite or virus in culture; settings: Patient Isolate 29
Method: as §1

[8] = test system: multidrug-resistant HIV-1 clinical isolate, patient 9; experiment: microbe, parasite or virus in culture; settings: Patient Isolate 9
Method: as §1

[9] = test system: multidrug-resistant HIV-1 clinical isolate, patient 23; experiment: microbe, parasite or virus in culture; settings: Patient Isolate 23
Method: as §1

[10] = test system: multidrug-resistant HIV-1 clinical isolate, patient 14; experiment: microbe, parasite or virus in culture; settings: Patient Isolate 14
Method: as §1

[11] = test system: multidrug-resistant HIV-1 clinical isolate, patient 16; experiment: microbe, parasite or virus in culture; settings: Patient Isolate 16
Method: as §1

[12] = test system: multidrug-resistant HIV-1 clinical isolate, patient 12; experiment: microbe, parasite or virus in culture; settings: Patient Isolate 12
Method: as §1

[13] = test system: multidrug-resistant HIV-1 clinical isolate, patient 32; experiment: microbe, parasite or virus in culture; settings: Patient Isolate 32
Method: as §1

[14] = test system: multidrug-resistant HIV-1 clinical isolate, patient 30; experiment: microbe, parasite or virus in culture; settings: Patient Isolate 30
Method: as §1

[15] = test system: multidrug-resistant HIV-1 clinical isolate, patient 31; experiment: microbe, parasite or virus in culture; settings: Patient Isolate 31
Method: as §1

[16] = test system: multidrug-resistant HIV-1 clinical isolate, patient 17; experiment: microbe, parasite or virus in culture; settings: Patient Isolate 17
Method: as §1

[17] = test system: multidrug-resistant HIV-1 clinical isolate, patient 35; experiment: microbe, parasite or virus in culture; settings: Patient Isolate 35
Method: as §1

[18] = test system: multidrug-resistant HIV-1 clinical isolate, patient 15; experiment: microbe, parasite or virus in culture; settings: Patient Isolate 15
Method: as §1

[19] = test system: multidrug-resistant HIV-1 clinical isolate, patient 11; experiment: microbe, parasite or virus in culture; settings: Patient Isolate 11
Method: as §1

[20] = test system: multidrug-resistant HIV-1 clinical isolate, patient 27; experiment: microbe, parasite or virus in culture; settings: Patient Isolate 27
Method: as §1

[21] = test system: multidrug-resistant HIV-1 clinical isolate, patient 21; experiment: microbe, parasite or virus in culture; settings: Patient Isolate 21
Method: as §1

[22] = test system: multidrug-resistant HIV-1 clinical isolate, patient 10; experiment: microbe, parasite or virus in culture; settings: Patient Isolate 10
Method: as §1

[23] = test system: multidrug-resistant HIV-1 clinical isolate, patient 22; experiment: IC50 against multidrug-resistant clinical isolates (Table 9a)
Method: as §1

[24] = test system: multidrug-resistant HIV-1 clinical isolate, patient 34; experiment: as above
Method: as §1

Cc1cn([C@H]2C=C[C@@H](CO)O2)c(=O)[nH]c1=O [Compound D4T]
IC50 (wild-type HIV-1 (WT)): 1060 nM | IC50 [1]: 22.5 µM | IC50 [2]: 35.6 µM | IC50 [3]: 2080 nM | IC50 [4]: 780 nM | IC50 [5]: 5.44 µM | IC50 [6]: 2730 nM | IC50 [7]: 5290 nM | IC50 [8]: 910 nM | IC50 [9]: 1000 nM | IC50 [10]: 1100 nM | IC50 [11]: 1810 nM | IC50 [12]: 1230 nM | IC50 [13]: 2410 nM | IC50 [14]: 2520 nM | IC50 [15]: 3110 nM | IC50 [16]: 4280 nM | IC50 [17]: 18.1 µM | IC50 [18]: 1100 nM | IC50 [19]: 3100 nM | IC50 [20]: 4 µM | IC50 [21]: 3.28 µM | IC50 [22]: 1290 nM | IC50 ([23]; Patient Isolate 22, read-out: IC50): 4680 nM | IC50 ([24]; Patient Isolate 34, read-out: IC50): 7.71 µM

Cc1c(O)cccc1C(=O)N[C@@H](CSc1ccccc1)[C@H](O)CN1C[C@H]2CCCC[C@H]2C[C@H]1C(=O)NC(C)(C)C [Nel., Nelfinavir]
IC50 (wild-type HIV-1 (WT); Human immunodeficiency virus 1): 31 nM | IC50 ([1]; Human immunodeficiency virus 1): 0.58 µM | IC50 ([2]; Human immunodeficiency virus 1): 0.5 µM | IC50 ([3]; Human immunodeficiency virus 1): 600 nM | IC50 ([4]; Human immunodeficiency virus 1): 470 nM | IC50 ([5]; Human immunodeficiency virus 1): > 1.25 µM | IC50 ([6]; Human immunodeficiency virus 1): 350 nM | IC50 ([7]; Human immunodeficiency virus 1): 670 nM | IC50 ([8]; Human immunodeficiency virus 1): 980 nM | IC50 ([9]; Human immunodeficiency virus 1): 280 nM | IC50 ([10]; Human immunodeficiency virus 1): 10 nM | IC50 ([11]; Human immunodeficiency virus 1): 860 nM | IC50 ([12]; Human immunodeficiency virus 1): > 1250 nM | IC50 ([13]; Human immunodeficiency virus 1): 220 nM | IC50 ([14]; Human immunodeficiency virus 1): 520 nM | IC50 ([15]; Human immunodeficiency virus 1): 240 nM | IC50 ([16]; Human immunodeficiency virus 1): 520 nM | IC50 ([17]; Human immunodeficiency virus 1): 0.48 µM | IC50 ([18]; Human immunodeficiency virus 1): 470 nM | IC50 ([19]; Human immunodeficiency virus 1): 30 nM | IC50 ([20]; Human immunodeficiency virus 1): > 1.25 µM | IC50 ([21]; Human immunodeficiency virus 1): > 1.25 µM | IC50 ([22]; Human immunodeficiency virus 1): > 1250 nM | IC50 ([23]; Human immunodeficiency virus 1): 100 nM | IC50 ([24]; Human immunodeficiency virus 1): 0.26 µM
